Laboratory results from patent US8821568B2, “Implant modified with non-hydroxylated vitamin D precursors” (Numat Biomedical S.L., priority 2008, dated 2014).

Tested on: MC3T3-E1 cells
Assay: Real-time RT-PCR of bone markers, plastic wells
Assay type: cell-based, mouse
Details: TCP, 2 days
Description: To test the effect of the different treatments onto the plastic wells, 96-well plates made of polystyrene were used and the treatments with 7-DHC performed directly onto them. Cells grown onto untreated TCP were added as a control for all the experiments. Cells were seeded at a density of 30,000 cells/cm^2 and they were maintained in α-MEM supplemented with 10% FCS and antibiotics. Culture media was collected after 48 hours, to test cytotoxicity and the production of the hydroxylated forms of vitamin D. Cells were harvested after 2 days of culture using Trizol reagent (Roche Diagnostics, Mannheim, Germany), to analyse early gene expression response of several osteoblast differentiation markers and enzymes involved in vitamin D synthesis using real-time RT-PCR.
RNA was isolated from cells using a monophasic solution of phenol and guanidine thiocyanate (Trizol, Roche Diagnostics, Mannheim, Germany) according to the manufacturer's protocol. RNA was quantified at 260 nm using a Nanodrop spectrophotometer (NanoDrop Technologies, Wilmington, Del., USA).
Total RNA previously isolated was reverse-transcribed to cDNA using High Capacity RNA to cDNA kit (Applied Biosystems, Foster City, Calif.) according to the protocol of the supplier. The same amount of total RNA from each sample was converted into cDNA. Each cDNA was diluted ¼ and aliquots were stored at −20° C. until the PCR reactions were carried out.
Real-time RT-PCR was performed for two reference genes: 18S ribosomal RNA (18S rRNA), glyceraldehyde-3-phosphate dehydrogenase (GAPDH), and 11 target genes alkaline phospathase (ALP), Interleukin 6 (IL-6), Collagen (Coll-1), Osteocalcin (OC), Bone Morphogenetic Protein 2 (BMP-2), Osterix (Osx), Receptor activator of nuclear factor kappa-B ligand (RANKL), Osteoprogesterin (OPG) and genes involved in vitamin D synthesis such as Vitamin D3 25-hydroxylase (CYP27A1), 25 hydroxyvitamin D3-1-alpha hydroxylase (CYP27B1) and 1,25-dihydroxyvitamin D3 24-hydroxylase (CYP24A1).
Real-time PCR were performed in the Lightcycler 480® (Roche Diagnostics, Germany). Each reaction contained 5 μl of LightCycler-FastStart DNA Master^PLUS SYBR Green I (Roche Diagnostics, Mannheim, Germany), 0.5 μM of the sense and antisense specific primers (Table 1) and 3 μl of the cDNA dilution in a final volume of 10 μl. The normal amplification program consisted of a preincubation step for denaturation of the template cDNA (10 min 95° C.), followed by 45 cycles consisting of a denaturation step (10 s 95° C.), an annealing step (10 s 60° C., except for ALP that was 10 s at 65° C., OSX with 10 s at 68° C. and CYP24A1 at 58° C. 10 s) and an extension step (10 s 72° C.). After each cycle, fluorescence was measured at 72° C. Every run included a negative control without cDNA template. To confirm amplification specificity, PCR products were subjected to a melting curve analysis on the LightCycler and subsequently 2% agarose/TAE gel electrophoresis, Tm and amplicon size, respectively.
To allow relative quantification after PCR, real-time efficiencies were calculated from the given slopes in the LightCycler 480 software (Roche Diagnostics, Mannheim, Germany) using serial dilutions. Relative quantification after PCR was calculated by normalizing target gene concentration in each sample by the concentration mean of the two reference genes in given sample using the “advanced relative quantification method” provided by the LightCycler 480 analysis software.

Structure (SMILES): CC(C)CCC[C@@H](C)[C@H]1CC[C@H]2C3=CC=C4C[C@@H](O)CC[C@]4(C)[C@H]3CC[C@]12C [7-DHC, 7-dehydrocholesterol]
- Collagen type-1 mRNA levels (0.2 nmols UV-treated vs same treatment non UV-irradiated): increased mRNA levels
- Osteocalcin mRNA levels (2 nmols UV-treated vs same treatment non UV-irradiated): statistical differences
- Bone morphogenetic protein 2 mRNA levels (2×10^−2 nmols UV-treated vs non-irradiated): significantly lower levels
- ALP mRNA levels (2×10^−3 nmols UV-treated vs same treatment non UV-irradiated): Higher ALP mRNA levels
- Osterix expression levels (all UV-treated groups vs non irradiated, significant at 0.2 and 2 nmols): Higher expression levels
- IL-6 mRNA levels (different doses, UV-treated vs UV-untreated): No significant differences
- RANKL mRNA levels (some UV-untreated samples compared to their control): lower
